Reference: paper PMC6631887, “In vitro and in vivo characterization of anti-malarial acylphenoxazine derivatives prepared from basic blue 3” (Malaria Journal, 2019)
Values joined by “and” are separate entries in the source; they are usually repeats but may differ in a detail not shown here. Equal values may be shown once. Read-outs that look alike come from different tables or passages of the source.

Key:
[1] = system: Plasmodium falciparum field isolate MRA-1240 (ART-resistant); experiment: In vitro anti-malarial efficacy (growth inhibition), XN-30 analyzer, MRA-1240 isolate; assay type: cell-based; conditions: read-out: IC50 MRA-1240
[2] = system: Plasmodium falciparum field isolate MRA-1239 (ART-sensitive); experiment: In vitro anti-malarial efficacy (growth inhibition), XN-30 analyzer, MRA-1239 isolate; assay type: cell-based; conditions: read-out: IC50 MRA-1239
[3] = system: Plasmodium falciparum 3D7 (CQ- and PYR-sensitive); experiment: In vitro anti-malarial efficacy (growth inhibition), XN-30 analyzer, 3D7 strain; assay type: cell-based; conditions: read-out: IC50 3D7
[4] = system: Plasmodium falciparum W2 (CQ- and PYR-resistant); experiment: In vitro anti-malarial efficacy (growth inhibition), XN-30 analyzer, W2 strain; assay type: cell-based; conditions: read-out: IC50 W2
[5] = Cytotoxic assay (Cell Counting Kit-8), HEK293T; assay type: cell-based; conditions: human, HEK293T cells; 48 h culture, CCK-8; mean ± SEM, three experiments
Method: (§1) HepG2 (JCRB1054) and HEK293T cell lines were obtained from the Japanese Collection of Research Bioresources (JCRB, Osaka, Japan) and Prof. Yoshiharu Matsuura (Osaka University, Osaka, Japan), respectively. The cells were cultured in Dulbecco’s modified Eagle’s medium (DMEM (1.0 g/L glucose) with L-glutamine and sodium pyruvate; Nacalai Tesque, Kyoto, Japan) supplemented with 10% (v/v) fetal bovine serum (FBS; Gibco-BRL, Grand Island, NY, USA) in a humidified incubator with 5% CO2 at 37 °C. For the cytotoxic assay, the cells (5 × 10^3/well) were seeded in a 96-well plate. […] Cell viability was measured using a Cell Counting Kit-8 (Dojindo) according to the manufacturer’s instructions. Briefly, 10 µL CCK-8 reagent was added to each well containing culture medium and incubated for 2 h under standard culture conditions. The absorbance of the sample was measured at 450 nm using a PowerWave HT microplate spectrophotometer (BioTek Instruments, Winooski, VT, USA). The cell viability was expressed as a percentage of the absorbance of the untreated control cells after subtracting the appropriate background intensity. The CC50 (mean ± SEM) was calculated as described in IC50. The SI, which is the ratio between the cytotoxicity and anti-malarial activity, was calculated according to the following equation. SI=mean CC50/mean IC50.

[6] = Cytotoxic assay (Cell Counting Kit-8), HepG2; assay type: cell-based; conditions: human, HepG2 cells; 48 h culture, CCK-8; mean ± SEM, three experiments
Method: as §1

Plasmodium berghei NK65 = experiment: In vivo anti-malarial activity, rodent malaria model, oral administration; design: species or system Plasmodium berghei (in ICR mice); conditions: for MSD (mean survival day) / % suppression on day 4: mice; for MSD (mean survival day): observed to day 30; for % suppression on day 4: repeated for 3 consecutive days, parasitaemia vs control
Method: The in vivo anti-malarial efficacy of ITT-001 to 006 was evaluated using the rodent malaria parasite P. berghei NK65 as described by Fidock et al., with some modifications. The parasite was maintained by syringe passage every week in female ICR mice (4–8-week-old; body weight, 25–27 g, Sankyo Lab Service, Tokyo, Japan). On day 0, a 200 µL aliquot of saline containing 2 × 10^7 iRBCs prepared from the pre-infected mice was injected intravenously into the mice. After 4 h, basic blue 3 and ITT-001 to 006 dissolved or suspended in 5% (w/v) methyl cellulose 400 solution (FUJIFILM Wako Pure Chemical, Osaka, Japan) were orally administered (100 mg/kg body weight of basic blue 3 and ITT-001 to 006 and 50 mg/kg body weight of ITT-004) to the mice (four and five groups for basic blue 3 and ITT-001 to 006, respectively). The control group (five mice/group) was treated with approximately 100 µL of the vehicle. This treatment was repeated for 3 consecutive days. On day 4, peripheral blood samples were obtained from the tail veins of the mice and thin blood smears stained with Diff-Quik stain kit (Sysmex) were observed under a Leica DM6000B microscope (Leica Microsystems, Wetzlar, Germany). Parasitaemia was determined by counting over 10 fields of view. The suppression rate (%) was calculated as the difference in parasitaemia between the test and control groups. The mean survival day (MSD) was calculated from the number of the surviving mice on day 30. The surviving mice were cured on day 30. Kaplan–Meier curves were generated to graphically display the efficacy using GraphPad Prism version 5.0.

[7] = Measurement of fluorescence spectrum (self-fluorescence); assay type: physicochemical; conditions: 10 µM in saline containing 1% DMSO, excitation 592 nm, emission 630-730 nm
Method: Fluorescence spectrum of basic blue 3 and ITT-001 to 006 (10 µM) was obtained in saline containing 1% DMSO at room temperature. The compounds were excited at 592 nm (bandpass width, 5 nm) and their emission spectra, 630 nm to 730 nm, were measured with a RF-5300PC Spectro fluorophotometer (Shimadzu).

[8] = system: Plasmodium falciparum 3D7 (ring-form-synchronized); experiment: Characterization of anti-malarial activity in vitro, 24 h treatment, XN-30 analyzer and light microscopy; assay type: cell-based; conditions: 3D7, 24 h treatment; for concentration at which parasites were arrested or killed with the ring-form: XN-30 analyzer (Fig. 2i); for concentration at which trophozoites appeared: XN-30 analyzer (Fig. 2ii)
Method: The ring-form-synchronized parasite (3D7 strain) was treated with the indicated concentrations of basic blue 3 and ITT-001 to 006 for 24 h for flow cytometric and morphological analyses using an automated haematology analyzer, XN-30, and light microscope, respectively.
For the flow cytometric analysis, the XN30 analyzer was equipped with a prototype algorithm for cultured P. falciparum [prototype; software version: 01-03, (build 16)] and specific reagents were used ([…] DCL, SULFOLYSER, Lysercell M, and Fluorocell M) (Sysmex, Kobe, Japan). Approximately 100 µL of the culture suspension diluted with 100 µL phosphate-buffered saline was added into a BD Microtainer MAP Microtube for Automated Process K2 EDTA 1.0 mg tube (Becton–Dickinson and Co., Franklin Lakes, NJ, USA) and loaded onto the XN-30 analyzer with an auto-sampler as described in the instrument’s manual (Sysmex). […] Horizontal and vertical axes represent the intensities of side fluorescent light (SFL, which corresponds to DNA content) and forward scattered light (FSC, indicating iRBC size), respectively. Colours indicate the following based on the default setting: red, ring-form; orange, trophozoite; purple, schizont; and blue, polychromatic RBC. Once parasites replicate DNA, dots are plotted to the right side on the M scattergram according to the increase in DNA content. The parasitaemias (total, MI-RBC%; ring-form, RNG-RBC%; trophozoite, TRPZ-RBC%; and schizont, SCHZ-RBC%) were automatically reported.
A standard thin blood smear was fixed with 100% methanol for 10 min and stained with 10% Giemsa working solution, pH 7.2 (Merck KGaA, Darmstadt, Germany) for 13 min.

[9] = 48 h treatment, ring-form-synchronized, XN-30 analyzer, mean ± SEM, three experiments
[10] = Plasmodium falciparum, 3D7, 48 h, 48 h treatment, ring-form-synchronized, XN-30 analyzer, mean ± SEM, three experiments
[11] = Plasmodium falciparum, W2, 48 h, 48 h treatment, ring-form-synchronized, XN-30 analyzer, mean ± SEM, three experiments
[12] = oral 100 mg/kg, surviving mice considered cured

| Compound | IC50 [1, 9] [µM] | IC50 [2, 9] [µM] | CC50 at 48 h [5] [µM] | CC50 at 48 h [6] [µM] | IC50 [3, 10] [µM] | IC50 [4, 11] [µM] | MSD (mean survival day) (Plasmodium berghei NK65; oral 100 mg/kg) [days] | % suppression on day 4 (Plasmodium berghei NK65; oral 100 mg/kg) [%] | # of survived mice on day 30 (Plasmodium berghei NK65; [12]) | maximum fluorescence intensity [7] | further results |
| --- | --- | --- | --- | --- | --- | --- | --- | --- | --- | --- | --- |
| C[C@@H]1CC[C@H]2[C@@H](C)C(=O)O[C@@H]3O[C@@]4(C)CC[C@@H]1[C@]32OO4 [ART, artemisinin, reference compound] | 0.0132 ± 0.0014 | 0.0055 ± 1.8e-05 |  |  |  |  |  |  |  |  |  |
| CCN(CC)CCCC(C)Nc1ccnc2cc(Cl)ccc12 (stereo not shown) [CQ, chloroquine, reference compound] |  |  |  |  |  |  |  |  |  |  | IC50 ([1]; 48 h): 0.058 ± 0.0026 µM; IC50 ([2]; 48 h): 0.0386 ± 0.0052 µM; IC50 ([3]; Plasmodium falciparum, 3D7, 48 h): 0.0086 ± 0.00021 µM; IC50 ([4]; Plasmodium falciparum, W2, 48 h): 0.225 ± 0.0232 µM |
| CCN(CC)c1ccc2c(c1)Oc1cc(N(CC)CC)ccc1N2C(C)=O [ITT-001, 1-(3,7-Bis(diethylamino)-10H-phenoxazin-10-yl)ethanone] | 0.039 ± 0.0112 | 0.0346 ± 0.0091 | 0.32 ± 0.042 | 4 ± 0.85 | 0.0112 ± 0.0013 | 0.0111 ± 0.0018 | 20.4 | > 99 | 3/5 |  |  |
| CCN(CC)c1ccc2c(c1)Oc1cc(N(CC)CC)ccc1N2C(=O)C(C)(C)C [ITT-002, 1-(3,7-Bis(diethylamino)-10H-phenoxazin-10-yl)-2,2-dimethylpropan-1-one] | 0.0244 ± 0.0037 | 0.0207 ± 0.0016 | 0.2 ± 0.021 | > 50 | 0.0107 ± 0.0015 | 0.0104 ± 0.0028 | 19.2 | > 99 | 2/5 |  |  |
| CCN(CC)c1ccc2c(c1)Oc1cc(N(CC)CC)ccc1N2C(=O)C1CC1 [ITT-003] | 0.0313 ± 0.0098 | 0.0249 ± 0.0031 | 9.2 ± 3.8 | > 50 | 0.0098 ± 0.001 | 0.0096 ± 0.0021 | 21.0 | > 99 | 2/5 |  |  |
| CCN(CC)c1ccc2c(c1)Oc1cc(N(CC)CC)ccc1N2C(=O)c1ccccc1 [ITT-004, (3,7-Bis(diethylamino)-10H-phenoxazin-10-yl)(phenyl)methanone] | 0.0305 ± 0.002 | 0.0264 ± 0.0029 | 10.5 ± 3.4 | > 50 | 0.0113 ± 0.0024 | 0.0123 ± 0.0027 | 29.4 | > 99 |  | less than 3 a.u. | MSD (mean survival day) (Plasmodium berghei NK65; oral 50 mg/kg): 11.8 days; % suppression on day 4 (Plasmodium berghei NK65; oral 50 mg/kg): > 99%; # of survived mice on day 30 (Plasmodium berghei NK65; oral 50 mg/kg): 0/5; # of survived mice on day 30 (Plasmodium berghei NK65; oral 100 mg/kg, surviving mice considered cured, 100 mg/kg): four of five and 4 out of 5 and 4/5 |
| CCN(CC)CC(=O)N1c2ccc(N(CC)CC)cc2Oc2cc(N(CC)CC)ccc21.Cl [ITT-005, 1-(3,7-Bis(diethylamino)-10H-phenoxazin-10-yl)-2-(diethylamino)ethanone hydrochloride] | 0.184 ± 0.0301 | 0.13 ± 0.0093 | 0.73 ± 0.093 | 4.6 ± 0.26 |  |  | 14.0 | > 99 | 1/5 |  | concentration at which parasites were arrested or killed with the ring-form [8]: 5000 nM; concentration at which trophozoites appeared [8]: 150 nM |
| CCN(CC)c1ccc2c(c1)Oc1cc(N(CC)CC)ccc1N2C(=O)c1ccc(F)cc1 [ITT-006, (3,7-Bis(diethylamino)-10H-phenoxazin-10-yl)(4-fluorophenyl)methanone] | 0.0294 ± 0.0058 | 0.0275 ± 0.0034 | 13.6 ± 3 | > 50 | 0.0106 ± 0.0016 | 0.016 ± 0.0045 | 13.0 | 91.5 | 0/5 | less than 3 a.u. |  |
| CCN(CC)c1ccc2nc3ccc(=[N+](CC)CC)cc-3oc2c1 [basic blue 3] | 0.0059 ± 0.00068 | 0.0052 ± 0.0011 | 0.021 ± 0.0042 | 1 ± 0.064 | ~0.004 | ~0.004 | 20.3 | > 99 | 1/4 | 775 a.u. | concentration at which parasites were arrested or killed with the ring-form [8]: 15 nM; concentration at which trophozoites appeared [8]: 0.5 nM; IC50 [3, 9]: 0.0032 ± 0.00019 µM; IC50 [4, 9]: 0.0048 ± 0.00053 µM |
